Experimental data taken from PMC8822347, “Sustained Control of Pyruvate Carboxylase by the Essential Second Messenger Cyclic di-AMP in Bacillus subtilis” (mBio, 2022).
One block for each molecule: values may come before it.

What was measured:
[1] = biological target: DarB (Bacillus subtilis, UniProt O31698, L38F); details: 20 °C; 10 µM DarB-L38F in cell, 100 µM c-di-AMP in syringe
[2] = biological target: DarB (Bacillus subtilis, UniProt O31698); details: 26 µM c-di-AMP, 2.6 µM DarB, 0.26 µM PC, 25 mM KHCO3, 2.5 mM pyruvate, 0.1 mM acetyl-CoA; c-di-AMP acts on DarB, not on PC
[3] = biological target: T1, PC; pyruvate carboxylase (PycA) (Bacillus subtilis, UniProt Q9KWU4); experiment: malate dehydrogenase-coupled NADH oxidation, […] nm; type: biochemical
T1 construct: gene pyc; full length (1148 residues), C-terminal 6xHis (pET28a, pGP3458), from E. coli Rosetta(DE3), biotinylated with BirA; tetrameric

[4] = substrate: CC(=O)C(=O)O; experiment: purified protein; type: biochemical, Bacillus subtilis; details: 0.1 mM acetyl-CoA, 2 mM ATP, 25 mM KHCO3, 5 mM MgCl2, 150 mM KCl, pH 7.8, 25 °C, no DarB
[5] = biological target: T2, PC-6×His (pyruvate carboxylase), biotinylated (B. subtilis, UniProt Q9KWU4 1-1148, biotin (naturally biotinylated or biotinylated in vitro with BirA)); experiment: pull-down; 2 nmol biotinylated PC-6×His or PC^CT+BCCP-6×His on 250 μl StrepTactin matrix with 15 nmol DarB, DarB^L38F or YlxR, overnight at 4°C; washed with dialysis buffer (10 mM Tris pH 7.8, 150 mM KCl, 6 mM β-mercaptoethanol, 5% glycerol); eluted with 7 mM biotin; Western blot, silver stain, mass spectrometry; also with DarB preincubated with c-di-AMP (150 nmol; less DarB bound) and with acetyl-CoA (more DarB …); details: both partners purified
T2 construct: pyruvate carboxylase (PC), encoded by pycA, Bacillus subtilis 168; wild type; domains BC, CT, BCCP; also called His-PC; PycA; source: E. coli Rosetta(DE3) (pGP3458), purified (Ni-NTA, StrepTactin); biotinylated in vitro with purified BirA; not shown: 6×His, C-terminal, kept
T2 sequence (looked up): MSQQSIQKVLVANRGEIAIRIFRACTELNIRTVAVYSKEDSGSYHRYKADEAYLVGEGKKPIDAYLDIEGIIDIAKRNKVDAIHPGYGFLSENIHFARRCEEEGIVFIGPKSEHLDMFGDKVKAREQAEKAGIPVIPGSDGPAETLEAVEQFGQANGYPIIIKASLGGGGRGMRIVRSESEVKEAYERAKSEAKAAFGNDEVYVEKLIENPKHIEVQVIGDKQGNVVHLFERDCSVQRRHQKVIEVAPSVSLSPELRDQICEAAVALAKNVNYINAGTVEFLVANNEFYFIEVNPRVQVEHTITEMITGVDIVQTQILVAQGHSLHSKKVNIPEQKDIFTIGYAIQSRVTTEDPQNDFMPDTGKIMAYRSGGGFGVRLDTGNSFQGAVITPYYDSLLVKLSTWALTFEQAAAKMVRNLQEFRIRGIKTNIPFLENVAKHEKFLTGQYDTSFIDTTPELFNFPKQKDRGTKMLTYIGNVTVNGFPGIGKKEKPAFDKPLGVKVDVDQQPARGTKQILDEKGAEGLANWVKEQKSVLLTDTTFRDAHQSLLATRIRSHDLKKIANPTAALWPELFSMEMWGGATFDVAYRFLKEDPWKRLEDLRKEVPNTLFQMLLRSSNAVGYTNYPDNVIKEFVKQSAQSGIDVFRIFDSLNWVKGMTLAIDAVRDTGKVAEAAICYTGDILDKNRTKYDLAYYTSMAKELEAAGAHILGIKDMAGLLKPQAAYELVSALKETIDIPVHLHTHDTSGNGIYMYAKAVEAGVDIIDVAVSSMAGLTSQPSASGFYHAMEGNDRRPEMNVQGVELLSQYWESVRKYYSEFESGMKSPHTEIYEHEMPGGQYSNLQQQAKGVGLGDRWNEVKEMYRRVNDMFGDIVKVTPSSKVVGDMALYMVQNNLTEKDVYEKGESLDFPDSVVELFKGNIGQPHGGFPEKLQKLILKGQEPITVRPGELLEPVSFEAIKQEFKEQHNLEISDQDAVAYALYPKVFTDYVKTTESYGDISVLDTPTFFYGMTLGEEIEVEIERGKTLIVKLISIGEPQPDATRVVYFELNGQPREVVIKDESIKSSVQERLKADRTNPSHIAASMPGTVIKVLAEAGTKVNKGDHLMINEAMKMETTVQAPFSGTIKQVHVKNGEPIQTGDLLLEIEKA

Sequence of DarB (Bacillus subtilis, UniProt O31698) (O31698 whole entry): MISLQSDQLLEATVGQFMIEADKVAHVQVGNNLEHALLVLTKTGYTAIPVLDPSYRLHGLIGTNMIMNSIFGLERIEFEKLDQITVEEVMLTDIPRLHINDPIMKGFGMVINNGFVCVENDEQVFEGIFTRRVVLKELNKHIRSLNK

activation by DarB inhibited to [2]: 16%
Molecule: Nc1ncnc2c1ncn2[C@@H]1O[C@@H]2COP(=O)(O)O[C@H]3[C@@H](O)[C@H](n4cnc5c(N)ncnc54)O[C@@H]3COP(=O)(O)O[C@H]2[C@H]1O [c-di-AMP]
KD [1]: the mutant protein binds c-di-AMP with a similar affinity as the wild-type protein

Molecule: N[C@@H](CC(=O)O)C(=O)O [aspartate]
malate dehydrogenase-coupled NADH oxidation, 340 nm ([3]; allosteric inhibitor, 16 mM aspartate with 0.1 mM acetyl-CoA, 2.5 mM pyruvate, DarB or BSA present): DarB was no longer able to activate PC in the presence of aspartate

Molecule: CC(=O)SCCNC(=O)CCNC(=O)[C@H](O)C(C)(C)COP(=O)(O)OP(=O)(O)OC[C@H]1O[C@@H](n2cnc3c(N)ncnc32)[C@H](O)[C@@H]1OP(=O)(O)O [acetyl-CoA]
malate dehydrogenase-coupled NADH oxidation, 340 nm ([3]; allosteric activator, 25 mM KHCO3, 2.5 mM pyruvate, pH 7.8, 25 °C, various acetyl-CoA concentrations): the activity of PC was strongly enhanced in the presence of acetyl-CoA

B1: PC; pyruvate carboxylase (PycA) (Bacillus subtilis subsp. subtilis str. 168) (protein)
chain: MSQQSIQKVLVANRGEIAIRIFRACTELNIRTVAVYSKEDSGSYHRYKADEAYLVGEGKKPIDAYLDIEGIIDIAKRNKVDAIHPGYGFLSENIHFARRCEEEGIVFIGPKSEHLDMFGDKVKAREQAEKAGIPVIPGSDGPAETLEAVEQFGQANGYPIIIKASLGGGGRGMRIVRSESEVKEAYERAKSEAKAAFGNDEVYVEKLIENPKHIEVQVIGDKQGNVVHLFERDCSVQRRHQKVIEVAPSVSLSPELRDQICEAAVALAKNVNYINAGTVEFLVANNEFYFIEVNPRVQVEHTITEMITGVDIVQTQILVAQGHSLHSKKVNIPEQKDIFTIGYAIQSRVTTEDPQNDFMPDTGKIMAYRSGGGFGVRLDTGNSFQGAVITPYYDSLLVKLSTWALTFEQAAAKMVRNLQEFRIRGIKTNIPFLENVAKHEKFLTGQYDTSFIDTTPELFNFPKQKDRGTKMLTYIGNVTVNGFPGIGKKEKPAFDKPLGVKVDVDQQPARGTKQILDEKGAEGLANWVKEQKSVLLTDTTFRDAHQSLLATRIRSHDLKKIANPTAALWPELFSMEMWGGATFDVAYRFLKEDPWKRLEDLRKEVPNTLFQMLLRSSNAVGYTNYPDNVIKEFVKQSAQSGIDVFRIFDSLNWVKGMTLAIDAVRDTGKVAEAAICYTGDILDKNRTKYDLAYYTSMAKELEAAGAHILGIKDMAGLLKPQAAYELVSALKETIDIPVHLHTHDTSGNGIYMYAKAVEAGVDIIDVAVSSMAGLTSQPSASGFYHAMEGNDRRPEMNVQGVELLSQYWESVRKYYSEFESGMKSPHTEIYEHEMPGGQYSNLQQQAKGVGLGDRWNEVKEMYRRVNDMFGDIVKVTPSSKVVGDMALYMVQNNLTEKDVYEKGESLDFPDSVVELFKGNIGQPHGGFPEKLQKLILKGQEPITVRPGELLEPVSFEAIKQEFKEQHNLEISDQDAVAYALYPKVFTDYVKTTESYGDISVLDTPTFFYGMTLGEEIEVEIERGKTLIVKLISIGEPQPDATRVVYFELNGQPREVVIKDESIKSSVQERLKADRTNPSHIAASMPGTVIKVLAEAGTKVNKGDHLMINEAMKMETTVQAPFSGTIKQVHVKNGEPIQTGDLLLEIEKA
notes: full length (1148 residues), C-terminal 6xHis (pET28a, pGP3458), from E. coli Rosetta(DE3), biotinylated with BirA; tetrameric
Km [4]: 230 µM

binding result [5]: binds
B2: DarB^L38F, purified, SUMO tag removed (natural protein, B. subtilis)
chain: MISLQSDQLLEATVGQFMIEADKVAHVQVGNNLEHALFVLTKTGYTAIPVLDPSYRLHGLIGTNMIMNSIFGLERIEFEKLDQITVEEVMLTDIPRLHINDPIMKGFGMVINNGFVCVENDEQVFEGIFTRRVVLKELNKHIRSLNK
notes: DarB, Bacillus subtilis 168, with Leu38 changed to Phe; also called DarB mutant L38F; the mutant protein; source: E. coli Rosetta(DE3) (pGP3481), purified (Ni-NTA; SUMO tag removed with SUMO protease); not shown: 6×His, N-terminal, cleaved; SUMO, N-terminal, cleaved
